Assay results published in US6646008B1, “Treatment of disease states which result from neoplastic cell proliferation using PPAR-γ activators and compositions useful therefor” (The Salk Institute for Biological Studies, priority 1996, dated 2003).

Legend:
NIH-vector cells = experiment: Adipocyte differentiation (oil red O lipid staining) of NIH-vector cells; assay type: cell-based; settings: for % lipid containing cells: NIH (vector) cells, treated 7 days at confluence, 1 μM pioglitazone, 50 nM LG268, or 5 μM thiazolidinedione and 50 nM LG268, oil red O after four more days, range over three experiments
Procedure: Simultaneous exposure of competent cells to both PPARγ and RXR-specific ligand was investigated to determine if such combination might provide a stronger adipogenic signal than a PPARγ ligand alone. […] It has previously been shown that wild-type NIH-3T3 cells express RXRα but not PPARγ. NIH-vector and NIH-PPARγ cells were cultured as described in the Examples. […] After an additional four days of culture, cells were fixed and stained with oil red O. Data are presented in Table 1 as the range of morphologically recognizable differentiation observed for each line over three separate experiments.

NIH-PPARγ cells = experiment: Adipocyte differentiation (oil red O lipid staining) of NIH-3T3 fibroblasts expressing PPARγ from a retroviral vector; assay type: cell-based; settings: for % lipid containing cells: NIH-PPARγ cells, treated 7 days at confluence, 1 μM pioglitazone, 50 nM LG268, or 5 μM thiazolidinedione and 50 nM LG268, oil red O after four more days, range over three experiments
Procedure: Simultaneous exposure of competent cells to both PPARγ and RXR-specific ligand was investigated to determine if such combination might provide a stronger adipogenic signal than a PPARγ ligand alone. […] NIH-vector and NIH-PPARγ cells were cultured as described in the Examples.

LS857 cells = experiment: Differentiation of primary liposarcoma cell strain LS857 (lipid accumulation, morphology); assay type: cell-based, human; settings: 7 days
HL-60 cells [1] = experiment: Growth of HL-60 cells in the presence of ligands; assay type: cell-based; settings: 100 nM 9-cis RA, 100 nM LG268, 3 μM PG-J2, cell numbers after 3, 5 or 7 days
Procedure: (§1) HL-60 cells were plated at a density of 2×10^5 cells/ml and were treated with:
(§2) 100 nM 9-cis retinoic acid (9-cis RA; which is both RAR and RXR active),
(§3) 100 nM LG268 (which is RXR selective),
(§4) 3 μM prostaglandin J2 (PG-J2; which is PPARγ active), or
(§5) a combination of 100 nM of LG268 and 3 μM of PG-J2.
Cell numbers were determined after 3, 5 or 7 days of culture, as illustrated in FIG. 1.

HL-60 cells [2] = experiment: Cell cycle analysis of HL-60 cells by flow cytometry (DNA content); assay type: cell-based; settings: for Cell Cycle Phase, % G1 / Cell Cycle Phase, % G2 / Cell Cycle Phase, % S: day 3, 100 nM 9-cis RA, 100 nM LG268, 3 μM PG-J2
Procedure: as §1, §2, §3, §4, §5
Cell cycle analysis was carried out on day 3 using standard DNA content determination by flow cytometry.

HL-60 leukemia cells = experiment: CD14 differentiation antigen flow cytometry in HL-60 cells; assay type: cell-based; settings: 5 days, 10 nM AM580, 100 nM LG268, 3 μM 15-deoxy-Δ12,14-prostaglandin-J2
Procedure: (§6) HL-60 and THP-1 leukemia cells were seeded at a ensity of 2×10^5 cells/ml and cultured in RPMI containing 10% charcoal-stripped fetal calf serum. Cells were treated with either vehicle alone, or 10 nM AM580, 100 nM LG268, or 3 μM 15-deoxy-Δ12,14-prostaglandin-J2. After 5 days, cells were incubated with monoclonal antibody to the monocyte-specific differentiation antigen CD14, and analyzed by flow cytometry using a Becton Dickinson FACScan.

THP-1 leukemia cells = experiment: CD14 differentiation antigen flow cytometry in THP-1 cells; assay type: cell-based; settings: 5 days, 100 nM LG268, 3 μM 15-deoxy-Δ12,14-prostaglandin-J2
Procedure: as §6

LS175 cells = experiment: Differentiation of primary liposarcoma cell strain LS175; assay type: cell-based, human; settings: 10 μM pioglitazone, 7 days
Procedure: Liposarcomas have presumably acquired one or more genetic defects that interfere with the course of normal adipocyte development. The observation that PPARγ is expressed consistently in these tumors raised the possibility that the malignant cells might be forced to complete the differentiation program by maximally iactivating the PPARγ pathway. To address this possibility, primary cells isolated from three human liposarcomas were cultured in vitro. Primary cell strains LS857 and LS175 were derived from well differentiated liposarcomas and LS707 was derived from an intermediate grade myxoid/round cell liposarcoma (see Table 5). High grade pleomorphic liposarcoma cells could not be expanded to sufficient numbers to permit studies of differentiation. A primary leiomyosarcoma cell line LM203 was cultured as a control. To confirm that these cultures consisted of malignant tumor-derived cells, cytogenetic analysis was performed.
When cultured in the presence of fetal bovine serum and insulin, conditions permissive for adipocyte differentiation, all three cell lines maintain a fibroblastic morphology. LS175 cells contained small amounts of stainable lipid under these conditions. […] The degree of morphologically recognizable differentiation varied from 40% in the LS857 cells to 75% in the LS175 cells. […]

Compound | % lipid containing cells (NIH-vector cells) [%] | adipogenic effect (NIH-vector cells; NIH-vector cells) | % lipid containing cells (NIH-PPARγ cells) | adipocyte differentiation (NIH-PPARγ cells; confluent NIH-PPARγ cells, 7 days, 50 nM LG268 and/or 1 μM pioglitazone) | adipocyte differentiation (LS857 cells; 50 nM LG268, 10 μM pioglitazone) | lipid accumulation, oil red O, macroscopic view (LS857 cells; 5 μM thiazolidinedione (BRL 49653 or pioglitazone), 50 nM LG268, stained after four more days) | effect on cell growth (HL-60 cells [1]) | Cell Cycle Phase, % G1 (HL-60 cells [2]) [%] | Cell Cycle Phase, % G2 (HL-60 cells [2]) [%] | Cell Cycle Phase, % S (HL-60 cells [2]) [%] | median fluorescence (CD14) (HL-60 leukemia cells) | median fluorescence (CD14) (THP-1 leukemia cells) | degree of morphologically recognizable differentiation (LS857 cells; 10 μM pioglitazone) [%] | degree of morphologically recognizable differentiation (LS175 cells) [%] | effect on cell cycle progression (HL-60 cells [2]; day 3)
Cc1cc2c(cc1C1(c3ccc(C(=O)O)cn3)CC1)C(C)(C)CCC2(C)C [LG268, 6-[1-(3,5,5,8,8-pentamethyl-5,6,7,8-tetrahydronaphthalen-2-yl)cyclopropyl]nicotinic acid] | 0 | no effect | 50-65% | significant stimulation of adipocyte differentiation | significant degree of adipocyte differentiation | significant lipid accumulation | only a marginal ability to promote cell differentiation | 54.5 | 14.4 | 31.1 | 138 | 18 | – | – | –
CCc1ccc(CCOc2ccc(CC3SC(=O)NC3=O)cc2)nc1 (stereo not shown) [pioglitazone] | 0 | – | 60-70% | – | – | – | – | – | – | – | – | – | 40 | 75 | –
CC1=C(/C=C/C(C)=C\C=C\C(C)=C\C(=O)O)C(C)(C)CCC1 [9-cis RA, 9-cis retinoic acid] | – | – | – | – | – | – | inhibit cell growth | 70.5 | 10.2 | 19.2 | – | – | – | – | inhibits cell cycle progression
AM580 | – | – | – | – | – | – | – | – | – | – | 26 | – | – | – | –
